We go through three molecules from patent publication US12077503B2, “Substituted cyclic amides and their use as herbicides” (FMC CORPORATION, priority 2015, dated 2024).

Read-outs that look alike come from different tables or passages of the source.

Holding throughout (assay type): in vivo
The subject of assay [1] is Galium (catchweed bedstraw, Galium aparine). The assay can be described thus: Test A postemergence. The settings on record: Galium, post-emergence, 240 h, postemergence; for pest or weed control at 125 g/ha: 125 g ai/ha. Summed up:
(§1)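 Seeded soil received test chemicals as a preemergence directed spray, and seedlings at one to two leaves, 2–10 cm tall, received them postemergence, in a non-phytotoxic, surfactant-containing solvent mixture. Pots were held in a greenhouse for approximately 10 d, then rated for injury from 0, no effect, to 100, complete control.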

Assay [2] has as its system giant foxtail (Setaria faberii). The assay can be described thus: Test A postemergence. The note with it: Setaria faberi, post-emergence, 240 h, postemergence; for pest or weed control at 125 g/ha: 125 g ai/ha. Summed up: as §1
The test system of assay [3] is ragweed (common ragweed, Ambrosia elatior). The assay can be described thus: Test A postemergence. The note with it: Ambrosia artemisiifolia, post-emergence, 240 h, 125 g ai/ha, postemergence. A digest of the protocol:
as §1

A further assay has as its system corn (Zea mays). The assay can be described thus: Test A postemergence. The note with it: Zea mays, post-emergence, 240 h, postemergence; for plant injury at 125 g/ha: 125 g ai/ha. Summed up: as §1
Assay [4] has as its system barnyardgrass (Echinochloa crus-galli). The assay can be described thus: Test A postemergence. The settings on record: Echinochloa crus-galli, post-emergence, 240 h, postemergence; for pest or weed control at 125 g/ha: 125 g ai/ha. A digest of the protocol: as §1
A further assay deals with Kochia (Kochia scoparia). The assay can be described thus: Test A postemergence. The settings on record: Bassia scoparia, post-emergence, 240 h, postemergence; for pest or weed control at 125 g/ha: 125 g ai/ha. A digest of the protocol:
as §1

Assay [5] concerns wheat (Triticum aestivum). The assay can be described thus: Test A postemergence. The note with it: Triticum aestivum, post-emergence, 240 h, 125 g ai/ha, postemergence. A digest of the protocol: as §1
Assay [6] has as its system ryegrass, Italian (Italian ryegrass, Lolium multiflorum). The assay can be described thus: Test A postemergence. The settings on record: Lolium multiflorum, post-emergence, 240 h, 125 g ai/ha, postemergence. Summed up: as §1
The subject of assay [7] is pigweed (Amaranthus retroflexus). The assay can be described thus: Test A postemergence. The settings on record: Amaranthus retroflexus, post-emergence, 240 h, 125 g ai/ha, postemergence. Summed up: as §1
For the next assay, the system named is rice (Oryra sativa). The assay can be described thus: Test B flooded paddy test. The note with it: Oryza sativa, Flood, 250 g ai/ha, read-out: Rice plant response rating. Summed up: (§2)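 Plants at 2-leaf stage flooded to 3 cm above soil, with compounds applied directly to paddy water and that depth maintained. Plants kept in greenhouse 13–15 d. Visual rating versus controls on a 0 (no effect) to 100 (complete control) scale.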

In assay [8] the test system is ducksalad (Heteranthera limosa). The assay can be described thus: Test B flooded paddy test. The note with it: Heteranthera limosa, Flood, 250 g ai/ha, read-out: Ducksalad plant response rating. Summed up:
as §2

Assay [9] deals with barnyardgrass (Echinochloa crus-galli). The assay can be described thus: Test B flooded paddy test. The note with it: Echinochloa crus-galli, Flood, 250 g ai/ha, read-out: Barnyardgrass plant response rating. A digest of the protocol:
as §2

Assay [10] has as its system sedge, umbrella (small-flower umbrella sedge, Cyperus difformis). The assay can be described thus: Test B flooded paddy test. The settings on record: Cyperus difformis, Flood, 250 g ai/ha, read-out: Sedge, Umbrella plant response rating. Summed up:
as §2

The subject of assay [11] is ryegrass, Italian (Italian ryegrass, Lolium multiflorum). The assay can be described thus: Test A preemergence. The note with it: Lolium multiflorum, pre-emergence, 240 h; for pest or weed control at 125 g/ha: 125 g ai/ha; for pest or weed control at 500 g/ha: 500 g ai/ha. Summed up:
as §1

Where [12] appears, read: visual injury rating after approximately 10 d, read-out: Galium plant response rating (0 to 100 scale, 0 no effect, 100 complete control).
[13] abbreviates: visual injury rating after approximately 10 d, read-out: Foxtail, Giant plant response rating (0 to 100 scale, 0 no effect, 100 complete control).
[14] abbreviates: visual injury rating after approximately 10 d, read-out: Ragweed plant response rating (0 to 100 scale, 0 no effect, 100 complete control).
The mark [15] stands for this setting: visual injury rating after approximately 10 d, read-out: Corn plant response rating (0 to 100 scale, 0 no effect, 100 complete control).
The mark [16] stands for this setting: visual injury rating after approximately 10 d, read-out: Barnyardgrass plant response rating (0 to 100 scale, 0 no effect, 100 complete control).
The mark [17] stands for this setting: visual injury rating after approximately 10 d, read-out: Kochia plant response rating (0 to 100 scale, 0 no effect, 100 complete control).
Where [18] appears, read: visual injury rating after approximately 10 d, read-out: Wheat plant response rating (0 to 100 scale, 0 no effect, 100 complete control).
[19] abbreviates: visual injury rating after approximately 10 d, read-out: Ryegrass, Italian plant response rating (0 to 100 scale, 0 no effect, 100 complete control).
[20] abbreviates: visual injury rating after approximately 10 d, read-out: Pigweed plant response rating (0 to 100 scale, 0 no effect, 100 complete control).
The mark [21] stands for this setting: scale of 0 to 100 where 0 is no effect and 100 is complete control.
The mark [22] stands for this setting: preemergence, 0 to 100 scale where 0 is no effect and 100 is complete control, read-out: Ryegrass, Italian plant response rating.
[23] abbreviates: Preemergence, visual injury vs untreated controls after approximately 10 d, read-out: Ryegrass, Italian plant response rating (0 to 100 scale where 0 is no effect and 100 is complete control).
Where [24] appears, read: 0 to 100 scale where 0 is no effect and 100 is complete control.

In the case of `O=C1NC[C@H](c2cc(F)c(C(F)(F)F)c(F)c2)[C@H]1C(=O)Nc1ccccc1F` [Compound 837], the pest or weed control at 125 g/ha in [1] (setting [12]) came to 50%; in [2] (setting [13]) it was 90%; in assay [3] (setting [14]) it was 10%; in assay [4] (setting [16]), 90%; in the assay with Kochia (Kochia scoparia) (setting [17]), 20%; in assay [6] (setting [19]), 50%. The pest or weed control at 125 g/ha was 30% in [7] (setting [20]) and 50% in assay [11] (setting [22]). The plant injury at 125 g/ha is 60% in the assay with corn (Zea mays) (setting [15]) and 0% in assay [5] (setting [18]). For the same molecule, the pest or weed control at 250 g/ha is 0% with rice (Oryra sativa) (setting [21]), 70% in assay [8] (setting [21]), 0% in assay [9] (setting [21]) and 0% in assay [10] (setting [21]). In [11] (setting [23]), the pest or weed control at 500 g/ha is 70%.
Turning to `O=C1NC[C@H](c2cc(F)c(C(F)(F)F)c(F)c2)[C@H]1C(=O)Nc1cccc(F)c1F` [Compound 838], the pest or weed control at 125 g/ha came out at 50% in [1] (setting [12]); 90% in assay [2] (setting [13]); 40% in assay [3] (setting [14]); 90% in [4] (setting [16]); 70% in the assay with Kochia (Kochia scoparia) (setting [17]); 30% in assay [6] (setting [19]). Moreover, the pest or weed control at 125 g/ha in assay [7] (setting [20]) was found to be 80%; in [11] (setting [22]), 20%. Further, the results for the plant injury at 125 g/ha (with corn (Zea mays) (setting [15]); in assay [5] (setting [18])) were 70% and 30%, respectively. The pest or weed control at 250 g/ha in the assay on rice (Oryra sativa) (setting [21]) is 0%; in [8] (setting [21]), 100%; in assay [9] (setting [21]), 40%; in assay [10] (setting [21]) it was 0%. For the same molecule, in [11] (setting [23]), the pest or weed control at 500 g/ha was determined as 60%.
Regarding `Cc1cc([C@H]2CNC(=O)[C@@H]2C(=O)Nc2ccccc2Cl)ccc1C(F)(F)F` [Compound 1044], the pest or weed control at 125 g/ha is 40% in [1] (visual injury on 0 to 100 scale (0 no effect, 100 complete control), approx. 10 d, read-out: Galium plant response rating); 60% in [2] (visual injury on 0 to 100 scale (0 no effect, 100 complete control), approx. 10 d, read-out: Foxtail, Giant plant response rating); 20% in assay [3] (visual injury on 0 to 100 scale (0 no effect, 100 complete control), approx. 10 d, read-out: Ragweed plant response rating); 70% in assay [4] (visual injury on 0 to 100 scale (0 no effect, 100 complete control), approx. 10 d, read-out: Barnyardgrass plant response rating); 0% in the assay with Kochia (Kochia scoparia) (visual injury on 0 to 100 scale (0 no effect, 100 complete control), approx. 10 d, read-out: Kochia plant response rating); 0% in assay [6] (visual injury on 0 to 100 scale (0 no effect, 100 complete control), approx. 10 d, read-out: Ryegrass, Italian plant response rating). In addition, the pest or weed control at 125 g/ha in [7] (visual injury on 0 to 100 scale (0 no effect, 100 complete control), approx. 10 d, read-out: Pigweed plant response rating) stood at 30%; in [11] (Preemergence, visual injury rating after approximately 10 d, read-out: Ryegrass, Italian plant response rating (0 to 100 scale, 0 is no effect, 100 is complete control)) it was 0%. In addition, the pest or weed control at 500 g/ha amounted to 60% in assay [1] (500 g ai/ha, visual injury, 0 to 100 scale (0 no effect, 100 complete control), approx. 10 d, read-out: Plant response rating, Galium); 90% in assay [2] (500 g ai/ha, visual injury, 0 to 100 scale (0 no effect, 100 complete control), approx. 10 d, read-out: Plant response rating, Foxtail, Giant); 80% in assay [4] (500 g ai/ha, visual injury, 0 to 100 scale (0 no effect, 100 complete control), approx. 10 d, read-out: Plant response rating, Barnyardgrass); 50% in the assay with Kochia (Kochia scoparia) (500 g ai/ha, visual injury, 0 to 100 scale (0 no effect, 100 complete control), approx. 10 d, read-out: Plant response rating, Kochia); 50% in assay [11] (preemergence, visual injury rating about 10 d after treatment, 0 to 100 scale (0 no effect, 100 complete control), read-out: Ryegrass, Italian plant response rating). Moreover, the plant injury at 125 g/ha is 0% in the assay on corn (Zea mays) (visual injury on 0 to 100 scale (0 no effect, 100 complete control), approx. 10 d, read-out: Corn plant response rating) and 0% in assay [5] (visual injury on 0 to 100 scale (0 no effect, 100 complete control), approx. 10 d, read-out: Wheat plant response rating). The same molecule showed a Corn plant response rating (crop injury, 0 = no effect, 100 = complete kill) at 500 g/ha with corn (Zea mays) (500 g ai/ha, visual injury, 0 to 100 scale (0 no effect, 100 complete control), approx. 10 d) of 50%. The pest or weed control at 250 g/ha (with rice (Oryra sativa) (setting [24]); in assay [8] (setting [24]); in assay [9] (setting [24]); in assay [10] (setting [24])) was 0% in each case.
